Reference: paper PMC10458937, “Triose Phosphate Isomerase Structure-Based Virtual Screening and In Vitro Biological Activity of Natural Products as Leishmania mexicana Inhibitors” (Pharmaceutics, 2023)
Read-outs that look alike come from different tables or passages of the source.

What was measured:
[1] = test system: L. mexicana MNYC/BZ/62/M379 promastigotes; assay: In vitro leishmanicidal evaluation on promastigotes (MTT), strain M379; format: cell-based; conditions: read-out: Leishmania mexicana IC50 (µM ± SD) M379
Procedure: (§1) The metabolic activity of the cells was determined using the method of 3-(4,5-Dimethylthiazol-2-yl)-2,5-diphenyltetrazolium bromide (MTT). The half-maximum inhibitory concentration (IC50) was determined using probit analysis. Three independent assays were each performed in triplicate. Biostat software was used to analyze the data for statistically significant data (p < 0.05).

[2] = Cytotoxicity in murine macrophages (MTT); format: cell-based, mouse; conditions: mouse, 37 °C, read-out: J774.2 Cell Line CC50 (µM ± SD)
Procedure: (§2) This assay was performed on mouse macrophages from the J774.2 cell line that were recloned from the original ascites and solid tumor J774.1 (according to the fabricant). The cells were cultured in RPMI medium supplemented with 10% SFB, […] penicillin, 100 ug/mL streptomycin, and glutamine (2 mM) at 37 °C and in a 5% CO2 atmosphere. The medium was changed at intervals of every 2 to 3 days. […] Cells in the presence of the maximum concentration of DMSO (0.2%) were included as a negative control. The metabolic activity of the cells was determined using the MTT method. The percentage of cell viability was calculated, and the mean cytotoxic concentration (CC50) was determined using probit analysis. Three independent assays were each performed in triplicate. The selectivity index (SI) was calculated for the promastigotes of L. mexicana and the autochthonous isolate (CC50/IC50).

[3] = test system: L. mexicana MHOM/MX/2017/UABJO17FCQEPS promastigotes; assay: In vitro leishmanicidal evaluation on promastigotes (MTT), strain FCQEPS; format: cell-based; conditions: 48 h, read-out: Leishmania mexicana IC50 (µM ± SD) FCQEPS
Procedure: as §1

J774.2 cell line = assay: Cytotoxicity in murine macrophages (MTT); format: cell-based, mouse; conditions: 48 h, 37 °C, read-out: J774.2 Cell Line CC50 (µM ± SD)
Procedure: as §2

[4] = test system: promastigote of both L. mexicana strains; assay: In vitro leishmanicidal activity, promastigote of both L. mexicana strains (abstract); format: cell-based, Leishmania mexicana; conditions: rounded value of the abstract
Procedure: Promastigotes from the reference strain of L. mexicana (MNYC/BZ/62/M379) and the autochthonous isolate of L. mexicana (MHOM/MX/2017/UABJO17FCQEPS) were used in the in vitro studies. Parasites were preserved in RPMI 1640 supplemented with 10% fetal bovine serum (FBS), 100 U/mL penicillin, 100 ug/mL streptomycin, and glutamine (2 mM). The parasites, in their logarithmic growth phase (5 × 10^5 parasites/mL), were incubated in 96-well plates with the compounds under different concentrations (0.78–100 µM) dissolved in dimethyl sulfoxide (DMSO) in a final volume of 200 µL for 48 h at 26 °C. Parasites in the presence of DMSO (0.2%) were included as a negative control. […] The metabolic activity of the cells was determined using the method of 3-(4,5-Dimethylthiazol-2-yl)-2,5-diphenyltetrazolium bromide (MTT). The half-maximum inhibitory concentration (IC50) was determined using probit analysis. Three independent assays were each performed in triplicate. Biostat software was used to analyze the data for statistically significant data (p < 0.05).

[5] = Leishmania mexicana, promastigotes, strain MNYC/BZ/62/M379, 48 h, 26 °C, MTT
[6] = Leishmania mexicana, promastigotes, strain MHOM/MX/2017/UABJO17FCQEPS, 26 °C, MTT

C[C@H]1[C@H](C)CC[C@]2(C(=O)O)CC[C@]3(C)C(=CC[C@@H]4[C@@]5(C)CC[C@H](O)C(C)(C)[C@@H]5CC[C@]43C)[C@H]12 [Compound B-3, ursolic acid]
IC50 [1, 5]: > 200 µM | CC50 at 48 h ([2]; J774.2 macrophage cells): 49.2 ± 5.53 µM | IC50 [3, 6]: 87.2 ± 7.05 µM

CC1(C)[C@@H](O)CC[C@]2(C)[C@H]3C(=O)C=C4[C@@H]5C[C@@](C)(C(=O)O)CC[C@]5(C)CC[C@@]4(C)[C@]3(C)CC[C@@H]12 [Compound S-3, glycyrrhetinic acid]
IC50 [1, 5]: 44.2 ± 5.03 µM | CC50 (J774.2 cell line): > 100 µM | IC50 [3, 6]: 145 ± 12.1 µM

CNC(=O)c1cc(Oc2ccc(NC(=O)Nc3ccc(Cl)c(C(F)(F)F)c3)cc2)ccn1 [Compound S-7, sorafenib]
IC50 ([1]; Leishmania mexicana, 48 h): 24.9 ± 3.08 µM | CC50 at 48 h [2]: 64.9 ± 9.58 µM | IC50 ([3]; Leishmania mexicana): 166 ± 18.1 µM

CCc1cc2c(cc1CC)CC(NC[C@H](O)c1ccc(O)c3[nH]c(=O)ccc13)C2 [Compound S-8, indacaterol]
IC50 [1, 5]: 55.1 ± 2.34 µM | CC50 (J774.2 cell line): > 100 µM | IC50 ([4]; Leishmania mexicana): 55 µM | IC50 [3, 6]: 56 ± 5.87 µM

Glucantime
IC50 ([1]; promastigotes, strain MNYC/BZ/62/M379, 48 h, 26 °C, MTT): 134 ± 2.79 µM | IC50 [4]: 133 µM | IC50 ([3]; promastigotes, strain MHOM/MX/2017/UABJO17FCQEPS, 26 °C, MTT): 125 ± 11.6 µM
